According to ChEMBL document CHEMBL3045592, “Studies of O,O-dimethyl α-(2,4-dichlorophenoxyacetoxy)ethylphosphonate (HW02) as a new herbicide. 1. Synthesis and herbicidal activity of HW02 and analogues as novel inhibitors of pyruvate dehydrogenase complex” (J Agric Food Chem, 2011):

Columns and labels:
[1] = system: Oryza sativa; assay: Inhibition of PDHc in Oryza sativa (rice) shoot mitochondria assessed as decrease in rate of NADH formation using sodium pyruvate as substrate at 1 microg/g preincubated for 25 min before substrate addition measured after 1 min by spectrophotometric assay
[2] = system: Medicago sativa; assay: Post-emergence herbicidal activity against Medicago sativa (alfalfa) assessed as growth inhibition at 150 ai g/ha after 20 days by green house test; format: functional
[3] = system: Echinochloa crus-galli; assay: Post-emergence herbicidal activity against Echinochloa crus-galli (barnyard grass) assessed as growth inhibition at 300 ai g/ha after 20 days by green house test; format: functional
[4] = system: Cardamine hirsuta; assay: Post-emergence herbicidal activity against Cardamine hirsuta assessed as growth inhibition at 150 ai g/ha after 20 days by green house test; format: functional
[5] = system: Daucus carota; assay: Post-emergence herbicidal activity against Daucus carota (carrot) assessed as growth inhibition at 450 ai g/ha after 20 days by green house test; format: functional
[6] = target: Pyruvate dehydrogenase complex (Vigna radiata var. radiata); assay: Inhibition of PDHc in Vigna radiata var. radiata VC2778A shoot mitochondria assessed as decrease in rate of NADH formation using sodium pyruvate as substrate preincubated for 25 min before substrate addition measured after 1 min by spectrophotometric assay; format: protein-complex assay
[7] = system: Xanthium strumarium; assay: Post-emergence herbicidal activity against Xanthium strumarium (cocklebur) assessed as growth inhibition at 37.5 ai g/ha after 20 days by green house test; format: functional
[8] = system: Echinochloa crus-galli; assay: Post-emergence herbicidal activity against Echinochloa crus-galli (barnyard grass) assessed as growth inhibition at 18.75 ai g/ha after 20 days by green house test; format: functional
[9] = system: Eclipta prostrata; assay: Post-emergence herbicidal activity against Eclipta prostrata assessed as growth inhibition at 300 ai g/ha after 20 days by green house test; format: functional
[10] = system: Oryza sativa; assay: Inhibition of PDHc in Oryza sativa (rice) shoot mitochondria assessed as decrease in rate of NADH formation using sodium pyruvate as substrate at 1000 microg/g preincubated for 25 min before substrate addition measured after 1 min by spectrophotometric assay
[11] = system: Medicago sativa; assay: Post-emergence herbicidal activity against Medicago sativa (alfalfa) assessed as growth inhibition at 75 ai g/ha after 20 days by green house test; format: functional
[12] = system: Brassica rapa subsp. oleifera; assay: Post-emergence herbicidal activity against Brassica rapa subsp. oleifera Si Yue Man assessed as growth inhibition at 600 ai g/ha after 20 days by green house test; format: functional
[13] = system: Daucus carota; assay: Post-emergence herbicidal activity against Daucus carota (carrot) assessed as growth inhibition at 300 ai g/ha after 20 days by green house test; format: functional
[14] = system: Medicago sativa; assay: Post-emergence herbicidal activity against Medicago sativa (alfalfa) assessed as growth inhibition at 18.75 ai g/ha after 20 days by green house test; format: functional
[15] = system: Daucus carota; assay: Post-emergence herbicidal activity against Daucus carota (carrot) assessed as growth inhibition at 37.5 ai g/ha after 20 days by green house test; format: functional
[16] = system: Portulaca oleracea; assay: Post-emergence herbicidal activity against Portulaca oleracea assessed as growth inhibition at 37.5 ai g/ha after 20 days by green house test; format: functional
[17] = system: Echinochloa crus-galli; assay: Post-emergence herbicidal activity against Echinochloa crus-galli (barnyard grass) assessed as growth inhibition at 75 ai g/ha after 20 days by green house test; format: functional
[18] = system: Daucus carota; assay: Post-emergence herbicidal activity against Daucus carota (carrot) assessed as growth inhibition at 75 ai g/ha after 20 days by green house test; format: functional
[19] = system: Amaranthus retroflexus; assay: Post-emergence herbicidal activity against Amaranthus retroflexus assessed as growth inhibition at 150 ai g/ha after 20 days by green house test; format: functional
[20] = system: Xanthium strumarium; assay: Post-emergence herbicidal activity against Xanthium strumarium (cocklebur) assessed as growth inhibition at 450 ai g/ha after 20 days by green house test; format: functional
[21] = system: Eclipta prostrata; assay: Post-emergence herbicidal activity against Eclipta prostrata assessed as growth inhibition at 225 ai g/ha after 20 days by green house test; format: functional
[22] = system: Cardamine hirsuta; assay: Post-emergence herbicidal activity against Cardamine hirsuta assessed as growth inhibition at 37.5 ai g/ha after 20 days by green house test; format: functional
[23] = system: Echinochloa crus-galli; assay: Post-emergence herbicidal activity against Echinochloa crus-galli (barnyard grass) assessed as growth inhibition at 37.5 ai g/ha after 20 days by green house test; format: functional
[24] = system: Brassica rapa subsp. oleifera; assay: Post-emergence herbicidal activity against Brassica rapa subsp. oleifera Si Yue Man assessed as growth inhibition at 75 ai g/ha after 20 days by green house test; format: functional
[25] = system: Cardamine hirsuta; assay: Post-emergence herbicidal activity against Cardamine hirsuta assessed as growth inhibition at 300 ai g/ha after 20 days by green house test; format: functional
[26] = system: Amaranthus retroflexus; assay: Post-emergence herbicidal activity against Amaranthus retroflexus assessed as growth inhibition at 75 ai g/ha after 20 days by green house test; format: functional
[27] = system: Portulaca oleracea; assay: Post-emergence herbicidal activity against Portulaca oleracea assessed as growth inhibition at 18.75 ai g/ha after 20 days by green house test; format: functional
[28] = system: Cardamine hirsuta; assay: Post-emergence herbicidal activity against Cardamine hirsuta assessed as growth inhibition at 225 ai g/ha after 20 days by green house test; format: functional
[29] = system: Daucus carota; assay: Post-emergence herbicidal activity against Daucus carota (carrot) assessed as growth inhibition at 225 ai g/ha after 20 days by green house test; format: functional

COP(=O)(OC)C(C)OC(=O)COc1ccc(Cl)cc1Cl (centres undefined) [CLACYFOS]
inhibition [1]: 8.2%
growth inhibition (GI) [2]: 90%
growth inhibition (GI) [3]: 20%
growth inhibition (GI) [4]: 92.5%
growth inhibition (GI) [5]: 100%
IC50 [6]: 12.8 µM
growth inhibition (GI) [7]: 60%
growth inhibition (GI) [8]: 0%
growth inhibition (GI) [9]: 100%
inhibition [10]: 55.1%
growth inhibition (GI) [11]: 84%
growth inhibition (GI) [12]: 100%
growth inhibition (GI) [13]: 100%
growth inhibition (GI) [14]: 60%
growth inhibition (GI) [15]: 85%
growth inhibition (GI) [16]: 65%
growth inhibition (GI) [17]: 0%
growth inhibition (GI) [18]: 90%
growth inhibition (GI) [19]: 96%
growth inhibition (GI) [20]: 100%
growth inhibition (GI) [21]: 96%
growth inhibition (GI) [22]: 84%
growth inhibition (GI) [23]: 0%
growth inhibition (GI) [24]: 92.5%
growth inhibition (GI) [25]: 100%
growth inhibition (GI) [26]: 90%
growth inhibition (GI) [27]: 50%
growth inhibition (GI) [28]: 95%
growth inhibition (GI) [29]: 97%
